Earlier results as cited in publication PMC12530842, “Potent, Selective, and Drug‐Like G Protein‐Coupled Receptor Kinase 5 and 6 Inhibitors: Design, Synthesis, and X‐Ray Structural Studies” (Chemmedchem, 2025).

Target: T1, GRK2 (Homo sapiens, UniProt P25098)
T1 construct: made in house
T1 sequence (P25098 1-689): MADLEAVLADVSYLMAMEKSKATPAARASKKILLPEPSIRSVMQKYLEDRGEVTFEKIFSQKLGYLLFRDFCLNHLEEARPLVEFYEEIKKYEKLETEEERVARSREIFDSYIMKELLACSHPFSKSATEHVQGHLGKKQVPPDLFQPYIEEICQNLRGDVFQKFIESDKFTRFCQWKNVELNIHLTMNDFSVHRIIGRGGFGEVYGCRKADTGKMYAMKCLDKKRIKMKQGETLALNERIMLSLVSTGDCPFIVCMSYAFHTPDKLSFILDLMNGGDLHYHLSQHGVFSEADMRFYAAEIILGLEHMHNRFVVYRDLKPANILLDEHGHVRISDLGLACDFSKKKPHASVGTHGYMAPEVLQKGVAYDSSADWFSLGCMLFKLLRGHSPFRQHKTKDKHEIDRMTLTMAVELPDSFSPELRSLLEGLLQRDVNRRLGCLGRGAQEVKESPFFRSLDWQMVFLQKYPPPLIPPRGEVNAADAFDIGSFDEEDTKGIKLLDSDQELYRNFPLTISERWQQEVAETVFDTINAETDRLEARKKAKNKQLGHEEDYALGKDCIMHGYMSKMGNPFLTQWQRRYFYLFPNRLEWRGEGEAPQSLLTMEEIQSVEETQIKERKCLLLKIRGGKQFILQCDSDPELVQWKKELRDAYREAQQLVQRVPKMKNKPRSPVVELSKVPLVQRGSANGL
Details: earlier work; cited from earlier work

Cc1[nH]c(/C=C2\C(=O)Nc3ccc(C(=O)N[C@H](C)c4ccc(F)cc4)cc32)c(C)c1NC(=O)CCl [compound 1]
IC50: 1200 nM
